Measured values from patent US12247004B2, “2-amino-N-(amino-oxo-aryl-lambda6-sulfanylidene)acetamide compounds and their therapeutic use” (Oxford Drug Design Limited, priority 2019, dated 2025).
In brackets after ≈: the same amount, converted by molar mass. Where two headings read alike, the source gives them in different places.

How the values were obtained:
[1] = Human cell viability / cytotoxicity (CellTiter-Glo, 24 hours); assay type: cell-based; conditions: human, HepG2 cells (ATCC HB-8065); HepG2 ATCC HB-8065, 24 hours; read-out: Cytotoxicity in HepG2 ATCC HB-8065 Cell Line, IC50
Method: Study 3—Human Cell Viability
Compounds were assessed for potential non-specific cytotoxic effects against a human hepatic cell line (HepG2 ATCC HB-8065). 96-well plates were seeded with HepG2 cells in concentration of 15,000 cells per well in 100 μL of MEM growth media completed with 1% NEAA and 1% sodium pyruvate. Border wells were filled with 100 μL of sterile PBS. Two days upon cells incubation, the compounds were added. Compound dilutions were prepared in 96-well V-bottom plate in pure DMSO. Growth media from 5 plates were aspirated and replaced with 98.7 μL of fresh growth media. 1.28 μL of compounds prepared in V-bottom plates were transferred with multichannel pipette into test plates (78.1× dilution). Final DMSO concentration was 1.28% per well. In control wells, 1.28 μL of DMSO was added in 98.7 μL of media. Compounds were tested in duplicates. Cells were incubated with compounds for 24 hours when cell viability was assessed by measuring ATP levels. ATP levels were measured by adding 50 μL of CellTiter-Glo reagent to each well and after 5 minutes of incubation luminescence was measured with SpectraMax i3. The potential effect of tested compounds on cell viability was determined by comparing the signal obtained in presence of different concentrations of the compounds with those obtained in the presence of DMSO only. The potential effects were then calculated and presented as IC50 values (μg/mL).

[2] = molecular target: Leucyl-tRNA synthetase (LeuRS) (Escherichia coli (strain K12), UniProt P07813); experiment: Leucyl-tRNA synthetase enzyme inhibition (AMP-Glo; single point % inhibition at 100 μM and IC50); assay type: biochemical
[3] = system: bacteria (ATCC reference strains); experiment: Antibacterial activity, MIC by broth micro-dilution (CLSI)
[4] = E. coli LeuRS, read-out: Enzyme Inhibition - IC50, E. coli LeuRS
[5] = Acinetobacter baumannii, read-out: Antibacterial Activity (MIC), E = A. baumannii B1931
[6] = Enterobacter cloacae, read-out: Antibacterial Activity (MIC), B = Enterobacter cloacae B1966
[7] = Escherichia coli, ATCC25922, read-out: Antibacterial Activity (MIC), A = E. coli ATCC 25922
[8] = Haemophilus influenzae, ATCC49247, read-out: Antibacterial Activity (MIC), F = H. influenzae ATCC 49247
[9] = Klebsiella pneumoniae, ATCC700603, read-out: Antibacterial Activity (MIC), C = K. pneumoniae ATCC 700603
[10] = Pseudomonas aeruginosa, ATCC27853, read-out: Antibacterial Activity (MIC), D = P. aeruginosa ATCC 27853
[11] = Escherichia coli, BAA2469, read-out: Antibacterial Activity (MIC), G = E. coli BAA-2469

Leucyl-tRNA synthetase (LeuRS), sequence (P07813 whole entry, looked up): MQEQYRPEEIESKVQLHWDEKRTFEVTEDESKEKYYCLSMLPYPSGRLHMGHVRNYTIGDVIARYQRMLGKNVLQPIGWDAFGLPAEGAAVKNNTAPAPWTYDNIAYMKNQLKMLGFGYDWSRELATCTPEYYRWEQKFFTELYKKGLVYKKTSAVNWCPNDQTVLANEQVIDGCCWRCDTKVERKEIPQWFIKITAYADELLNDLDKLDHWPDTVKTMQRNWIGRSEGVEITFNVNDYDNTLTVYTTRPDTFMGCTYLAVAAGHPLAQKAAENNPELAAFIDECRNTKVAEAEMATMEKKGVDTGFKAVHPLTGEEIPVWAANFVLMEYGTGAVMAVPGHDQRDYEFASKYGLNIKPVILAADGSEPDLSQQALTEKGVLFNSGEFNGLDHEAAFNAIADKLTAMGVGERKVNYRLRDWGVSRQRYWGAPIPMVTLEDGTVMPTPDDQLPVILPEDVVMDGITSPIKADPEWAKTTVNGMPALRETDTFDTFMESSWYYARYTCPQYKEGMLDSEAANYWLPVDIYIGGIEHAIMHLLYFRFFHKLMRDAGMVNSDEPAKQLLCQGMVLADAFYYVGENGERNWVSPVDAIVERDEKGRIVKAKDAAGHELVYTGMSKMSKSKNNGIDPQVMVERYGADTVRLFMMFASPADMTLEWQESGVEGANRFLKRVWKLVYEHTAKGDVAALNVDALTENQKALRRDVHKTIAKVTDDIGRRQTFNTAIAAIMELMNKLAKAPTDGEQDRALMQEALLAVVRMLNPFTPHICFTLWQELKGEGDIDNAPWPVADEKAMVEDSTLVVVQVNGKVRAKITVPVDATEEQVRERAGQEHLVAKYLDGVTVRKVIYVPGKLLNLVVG

Compound | IC50 at 24 h [1] | IC50 [2, 4] | MIC [3, 5] | MIC [3, 6] | MIC [3, 7] | MIC [3, 8] | MIC [3, 9] | MIC [3, 10] | IC50 [2] | MIC [3, 11]
CC(C)C[C@H](N)C(=O)N=S(N)(=O)c1ccccc1 (some centres unmarked) [ANASIA-003] | > 64 µg/mL | 92.9 nM | 32 µg/mL (≈ 119 µM) | 16 µg/mL (≈ 59.4 µM) | 2.83 µg/mL (≈ 10.5 µM) | 16 µg/mL (≈ 59.4 µM) | 8 µg/mL (≈ 29.7 µM) | 50.8 µg/mL (≈ 189 µM) |  | 
CC(C)C[C@H](N)C(=O)N=[S@@](N)(=O)c1ccccc1F.Cl [ANASIA-087-1] | > 64 µg/mL |  | > 64 µg/mL | 64 µg/mL | 11.3 µg/mL | 32 µg/mL | > 64 µg/mL | > 64 µg/mL | 289 nM | 
CC(C)C[C@H](N)C(=O)N=[S@](N)(=O)c1sccc1Cl.Cl [ANASIA-012-1] | > 64 µg/mL |  | 64 µg/mL | 32 µg/mL | 4 µg/mL | 8 µg/mL | 64 µg/mL | > 64 µg/mL | 87.4 nM | 16 µg/mL
CC(C)C[C@H](N)C(=O)N=[S@](N)(=O)c1cccc(C(C)C)c1.Cl [ANASIA-043-1] | > 64 µg/mL |  | > 64 µg/mL | > 64 µg/mL | > 64 µg/mL | 45.3 µg/mL | > 64 µg/mL | > 64 µg/mL | 112 nM | 
CC(C)C[C@H](N)C(=O)N=[S@@](N)(=O)c1cccc(Cl)c1.Cl [ANASIA-002-2] | > 64 µg/mL | 1050 nM | > 64 µg/mL | > 64 µg/mL | 64 µg/mL | > 64 µg/mL | > 64 µg/mL | > 64 µg/mL |  | 
CC(C)C[C@H](N)C(=O)N=S(N)(=O)c1sccc1Cl (some centres unmarked) [ANASIA-012] | > 64 µg/mL | 155 nM | > 64 µg/mL | 64 µg/mL (≈ 207 µM) | 8 µg/mL (≈ 25.8 µM) | 16 µg/mL (≈ 51.6 µM) | > 64 µg/mL | > 64 µg/mL |  | 32 µg/mL (≈ 103 µM)
CC(C)C[C@H](N)C(=O)N=[S@](N)(=O)c1cccc(Oc2ccc(Cl)cc2)c1.Cl [ANASIA-047-1] | 46.5 µg/mL |  | > 64 µg/mL | > 64 µg/mL | > 64 µg/mL | 64 µg/mL | > 64 µg/mL | > 64 µg/mL | 76.4 nM | 
CC(C)C[C@H](N)C(=O)N=S(N)(=O)c1ccc(C(F)F)s1 (some centres unmarked) [ANASIA-017] | > 64 µg/mL |  | > 64 µg/mL | > 64 µg/mL | 16 µg/mL (≈ 49.2 µM) | 8 µg/mL (≈ 24.6 µM) | > 64 µg/mL | > 64 µg/mL | 145 nM | 
CC(C)C[C@H](N)C(=O)N=[S@](N)(=O)c1ccsc1Cl.Cl [ANASIA-092-1] | > 64 µg/mL |  | 64 µg/mL |  | 2 µg/mL | 2 µg/mL | 64 µg/mL | > 64 µg/mL | 48.4 nM | 11.3 µg/mL
CC(C)C[C@H](N)C(=O)N=[S@](N)(=O)c1ccccc1.Cl [ANASIA-003-1, (S)-2-amino-N—((S)-amino(oxo)(phenyl)-λ6-sulfanylidene)-4-methylpentanamide hydrochloride] | > 64 µg/mL | 61.5 nM | 64 µg/mL | 16 µg/mL | 4 µg/mL | 8 µg/mL | 16 µg/mL | 64 µg/mL |  | 
CC(C)C[C@H](N)C(=O)N=S(N)(=O)c1cccc(Cl)c1 (some centres unmarked) [ANASIA-002] | > 64 µg/mL | 110 nM | > 45.3 µg/mL | > 45.3 µg/mL | 2.83 µg/mL (≈ 9.31 µM) | 5.66 µg/mL (≈ 18.6 µM) | > 22.6 µg/mL | > 64 µg/mL |  | 
COc1ccsc1[S@@](N)(=O)=NC(=O)[C@@H](N)CC(C)C.Cl [ANASIA-108-1] | > 64 µg/mL |  | > 64 µg/mL |  | 8 µg/mL | 32 µg/mL | 64 µg/mL | 64 µg/mL | 127 nM | 16 µg/mL
CC(C)C[C@H](N)C(=O)N=[S@](N)(=O)c1cccc(Cl)c1F.Cl [ANASIA-001-1] | > 64 µg/mL |  | > 64 µg/mL | > 64 µg/mL | 16 µg/mL | 32 µg/mL | > 64 µg/mL | > 64 µg/mL | 535 nM | 
CC(C)C[C@H](N)C(=O)N=S(N)(=O)c1cccnc1 (some centres unmarked) [ANASIA-006] | > 64 µg/mL | 708 nM | > 64 µg/mL | > 64 µg/mL | 64 µg/mL (≈ 237 µM) | > 64 µg/mL | > 64 µg/mL | > 64 µg/mL |  | 
CC(C)C[C@H](N)C(=O)N=[S@@](N)(=O)c1ccc(Cl)s1 [ANASIA-009-2] | > 64 µg/mL | 149 nM | 64 µg/mL (≈ 207 µM) | 32 µg/mL (≈ 103 µM) | 4 µg/mL (≈ 12.9 µM) | 8 µg/mL (≈ 25.8 µM) | 32 µg/mL (≈ 103 µM) | > 64 µg/mL |  | 
CC(C)C[C@H](N)C(=O)N=S(N)(=O)c1csc2ccsc12 (some centres unmarked) [ANASIA-100] | > 64 µg/mL | 32.8 nM | 32 µg/mL (≈ 96.5 µM) |  | 0.5 µg/mL (≈ 1.51 µM) | 0.5 µg/mL (≈ 1.51 µM) | 64 µg/mL (≈ 193 µM) | > 64 µg/mL |  | 4 µg/mL (≈ 12.1 µM)
Cc1cccc(S(N)(=O)=NC(=O)[C@@H](N)CC(C)C)c1 (some centres unmarked) [ANASIA-005] | > 64 µg/mL | 381 nM | 64 µg/mL (≈ 226 µM) | 32 µg/mL (≈ 113 µM) | 8 µg/mL (≈ 28.2 µM) | 32 µg/mL (≈ 113 µM) | 32 µg/mL (≈ 113 µM) | > 64 µg/mL |  | 
CC(C)C[C@H](N)C(=O)N=S(N)(=O)c1cccc(Cl)c1F (stereo partly drawn) [ANASIA-001, (2S)-2-amino-N-(amino(3-chloro-2-fluorophenyl)(oxo)-λ6-sulfanylidene)-4-methylpentanamide 2,2,2-trifluoroacetate] | > 64 µg/mL | 429 nM | > 64 µg/mL | > 64 µg/mL | 32 µg/mL (≈ 99.4 µM) | > 64 µg/mL | > 64 µg/mL | > 64 µg/mL |  | 
Cc1ccc([S@@](N)(=O)=NC(=O)[C@@H](N)CC(C)C)s1.Cl [ANASIA-014-1] | > 64 µg/mL |  | 64 µg/mL | 16 µg/mL | 4 µg/mL | 4 µg/mL | 64 µg/mL | > 64 µg/mL | 81.1 nM | 
CC(C)C[C@H](N)C(=O)N=[S@](N)(=O)c1cccc(Cl)c1Cl.Cl [ANASIA-046-1] | > 64 µg/mL |  | > 64 µg/mL | > 64 µg/mL | > 64 µg/mL | 64 µg/mL | > 64 µg/mL | > 64 µg/mL | 960 nM | 
CC(C)C[C@H](N)C(=O)N=S(N)(=O)c1ccsc1 (some centres unmarked) [ANASIA-008] | > 64 µg/mL | 144 nM | 32 µg/mL (≈ 116 µM) | 16 µg/mL (≈ 58.1 µM) | 2 µg/mL (≈ 7.26 µM) | 16 µg/mL (≈ 58.1 µM) | 8 µg/mL (≈ 29 µM) | 32 µg/mL (≈ 116 µM) |  | 
CC(C)C[C@H](N)C(=O)N=[S@](N)(=O)c1cc(F)ccc1F.Cl [ANASIA-024-1] | > 64 µg/mL |  | > 64 µg/mL | > 64 µg/mL | 16 µg/mL | 16 µg/mL | > 64 µg/mL | > 64 µg/mL | 141 nM | 
CC(C)C[C@H](N)C(=O)N=[S@](N)(=O)c1scc(Cl)c1Cl.Cl [ANASIA-081-1] | > 64 µg/mL |  | 32 µg/mL |  | 2 µg/mL | 1 µg/mL | 256 µg/mL | > 64 µg/mL | 33.9 nM | 8 µg/mL
Cc1cccc([S@](N)(=O)=NC(=O)[C@@H](N)CC(C)C)c1 [ANASIA-005-2] | > 64 µg/mL | 151 nM | > 64 µg/mL | 64 µg/mL (≈ 226 µM) | 8 µg/mL (≈ 28.2 µM) | 16 µg/mL (≈ 56.5 µM) | > 64 µg/mL | > 64 µg/mL |  | 32 µg/mL (≈ 113 µM)
CC(C)C[C@H](N)C(=O)N=[S@](N)(=O)c1cccc(C#N)c1.Cl [ANASIA-041-1] | > 64 µg/mL |  | > 64 µg/mL | > 64 µg/mL | 5.66 µg/mL | 2.83 µg/mL | > 64 µg/mL | > 64 µg/mL | 17.7 nM | 64 µg/mL
CC(C)C[C@H](N)C(=O)N=[S@@](N)(=O)c1cccc(Oc2ccc(Cl)cc2)c1 [ANASIA-047-2] | 45.3 µg/mL (≈ 114 µM) | 1290 nM |  |  |  |  |  |  |  | 
CC(C)C[C@H](N)C(=O)N=[S@@](N)(=O)c1cccc(Cl)c1Cl [ANASIA-046-2] | > 64 µg/mL |  |  |  |  |  |  |  | 2570 nM | 
CC(C)C[C@H](N)C(=O)N=[S@@](N)(=O)c1ccc(Cl)c(Cl)c1 [ANASIA-042-2] | > 64 µg/mL | 7920 nM |  |  |  |  |  |  |  | 
CC(C)C[C@H](N)C(=O)N=[S@](N)(=O)c1cccs1.Cl (single isomer, unassigned) [ANASIA-007-1, (S)-2-amino-N—((S)-amino(oxo)(thiophen-2-yl)-λ6-sulfanylidene)-4-methylpentanamide hydrochloride] | > 64 µg/mL | 63.3 nM |  |  |  |  |  |  |  | 
